Test results as given in US10344025B2, “GLS1 inhibitors for treating disease” (Board of Regents, The University of Texas System, priority 2014, dated 2019).

Tests used:
[1] = target: purified recombinant human GAC (GLS1) (Homo sapiens (Human), UniProt O94925); assay: GLS1 Enzymatic Activity Assay (dual-coupled enzymatic assay, resorufin/Amplex UltraRed readout); assay type: biochemical;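 note: glutamate from GAC coupled via glutamate oxidase and peroxidase to resorufin, read as fluorescence (ex 530, em 590 nm) kinetically or at 20 min, four-parameter logistic IC50 fit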
purified recombinant human GAC (GLS1), sequence (O94925 other isoform, or with tags, fused parts or gaps): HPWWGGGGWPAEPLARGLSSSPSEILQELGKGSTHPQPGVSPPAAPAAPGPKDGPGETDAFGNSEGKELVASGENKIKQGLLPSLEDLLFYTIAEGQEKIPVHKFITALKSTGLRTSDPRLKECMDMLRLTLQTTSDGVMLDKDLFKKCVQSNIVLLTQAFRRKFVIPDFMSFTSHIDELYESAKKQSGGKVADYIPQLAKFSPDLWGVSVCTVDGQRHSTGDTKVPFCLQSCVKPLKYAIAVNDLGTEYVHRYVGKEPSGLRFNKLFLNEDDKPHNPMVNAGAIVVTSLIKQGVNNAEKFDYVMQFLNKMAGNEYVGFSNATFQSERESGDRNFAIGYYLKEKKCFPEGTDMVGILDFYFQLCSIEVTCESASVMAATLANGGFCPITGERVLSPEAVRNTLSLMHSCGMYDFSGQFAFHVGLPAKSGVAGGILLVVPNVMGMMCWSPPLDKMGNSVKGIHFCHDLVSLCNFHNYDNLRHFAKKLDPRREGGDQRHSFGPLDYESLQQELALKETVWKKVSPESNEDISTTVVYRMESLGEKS

A549 cells = assay: Proliferation Assay (A549 viability, Cell Titer Fluor, 72 hours); assay type: cell-based; settings: Homo sapiens, A549, 72 h
Outline: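 Cell Titer Fluor fluorescence after 72 h compound treatment (0.5% DMSO, 37 °C, 5% CO2) of A549 cells plated 24 h earlier at 1000/well. Four-parameter logistic fitting gave IC50.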

Row | Compound | IC50 [1] [nM] | EC50 (A549 cells) [nM]
1 | CNC(=O)c1cn(CCC(F)Cn2cc(C(=O)NCc3cc(C(F)(F)F)ccn3)nn2)nn1 (stereo not shown) [Example 475, 1-(3-fluoro-4-(4-((4-(trifluoromethyl)pyridin-2-yl)methylcarbamoyl)-1H-1,2,3-triazol-1-yl)butyl)-N-methyl-1H-1,2,3-triazole-4-carboxamide] | 100 to 500 | 100 to 500
2 | CNC(=O)c1cn(C[C@H](F)CCc2nnc(C(=O)NCc3cc(C(F)(F)F)ccn3)s2)nn1 (single isomer, unassigned) [Example 221] | 100 to 500 | 100 to 500
3 | O=C(NCc1cccc(C(F)(F)F)n1)c1cn(CCC(F)Cn2cc(C(=O)NCc3cc(OC(F)(F)F)ccc3F)nn2)nn1 (stereo not shown) [Example 422, 1-{2-fluoro-4-[4-({[6-(trifluoromethyl)pyridin-2-yl]methyl}carbamoyl)-1H-1,2,3-triazol-1-yl]butyl}-N-{[-fluoro-5-(trifluoromethoxy)phenyl]methyl}-1H-1,2,3-triazole-4-carboxamide] | < 100 | < 100
4 | CNC(=O)c1cn(CCC(F)Cn2cc(NC(=O)Cc3cc(OC(F)(F)F)ccc3F)nn2)nn1 (stereo not shown) [Example 525, 1-[3-fluoro-4-(4-{2-[2-fluoro-5-(trifluoromethoxy)phenyl]acetamido}-1H-1,2,3-triazol-1-yl)butyl]-N-methyl-1H-1,2,3-triazole-4-carboxamide] | < 100 | 100 to 500
5 | O=C(NCc1cccc(N2CCCC2)c1)c1cn(CCCCn2cc(C(=O)NCc3cc(C(F)(F)F)ccn3)nn2)nn1 [Example 124, 1-{4-[4-({[3-(pyrrolidin-1-yl)phenyl]methyl}carbamoyl)-1H-1,2,3-triazol-1-yl]butyl}-N-{[4-(trifluoromethyl)pyridin-2-yl]methyl}-1H-1,2,3-triazole-4-carboxamide] | < 100 | < 100
6 | O=C(Cc1cc(OC(F)(F)F)ccc1F)Nc1cn(CC(F)CCn2cc(C(=O)NCc3cc(OC(F)(F)F)ccc3F)nn2)nn1 (stereo not shown) [Example 377, 1[3-fluoro-4-(4-{2-[2-fluoro-5-(trifluoromethoxy)phenyl]acetamido}-1H-1,2,3-triazol-1-yl)butyl]-N-{[2-fluoro-5-(trifluoromethoxy)phenyl]methyl}-1H-1,2,3-triazole-4-carboxamide] | < 100 | < 100
7 | O=C(Cc1cccc(OC(F)(F)F)c1)Nc1cn(CCCCn2cc(C(=O)NCC3CCCC3)nn2)nn1 [Example 292, N-(cyclopentylmethyl)-1-[4-(4-{2-[3-(trifluoromethoxy)phenyl]acetamido}-1H-1,2,3-triazol-1-yl)butyl]-1H-1,2,3-triazole-4-carboxamide] | 100 to 500 | 500 to 5000
8 | CNC(=O)c1cn(CC(F)CCc2nnc(C(=O)NCc3cncc(C(F)(F)F)c3)s2)nn1 (stereo not shown) [Example 501, 5-{3-fluoro-4-[4-(methylcarbamoyl)-1H-1,2,3-triazol-1-yl]butyl}-N-{[- (trifluoromethyl)pyridin-3-yl]methyl}-1,3,4-thiadiazole-2-carboxamide] | 100 to 500 | 100 to 500
9 | CNC(=O)c1cn(CCCCn2cc(C(=O)NCc3cc(C(F)(F)F)ccn3)nn2)nn1 [Example 88, 1-{4-[4-(methylcarbamoyl)-1H-1,2,3-triazol-1-yl]butyl}-N-{[4-(trifluoromethyl)pyridin-2-yl]methyl}-1H-1,2,3-triazole-4-carboxamide] | 500 to 5000 | 500 to 5000
10 | CNC(=O)c1cn(CC(F)CCc2ccc(NC(=O)CN3CCN(c4cccc(OC(F)(F)F)c4)CC3=O)nn2)nn1 (stereo not shown) [Example 241, 1-(2-fluoro-4-(6-(2-(2-oxo-4-(3-(trifluoromethoxy)phenyl)piperazin-1-yl)acetamido)pyridazin-3-yl)butyl)-N-methyl-1H-1,2,3-triazole-4-carboxamide] | < 100 | < 100
11 | O=C(Cc1ccccn1)Nc1nnc(CCCCn2cc(C(=O)NCc3cccc(OC(F)(F)F)c3)nn2)s1 [Example 553, 1-(4-{5-[2-(pyridin-2-yl)acetamido]-1,3,4-thiadiazol-2-yl}butyl)-N-{[3-(trifluoromethoxy)phenyl]methyl}-1H-1,2,3-triazole-4-carboxamide] | < 100 | < 100
12 | O=C(Cc1ccccn1)Nc1nnc(CC[C@H](F)Cn2cc(C(=O)NCc3cc(OC(F)(F)F)ccc3F)nn2)s1 [Example 197, (S)-1-(2-fluoro-4-(5-(2-(pyridin-2-yl)acetamido)-1,3,4-thiadiazol-2-yl)butyl)-N-(2-fluoro-5-(trifluoromethoxy)benzyl)-1H-1,2,3-triazole-4-carboxamide] | < 100 | < 100
13 | O=C(NCc1cc(C2CC2)ccn1)c1cn(CCC(F)Cn2cc(C(=O)NCc3cncc(C(F)(F)F)c3)nn2)nn1 (stereo not shown) [Example 152, N-[(4-cyclopropylpyridin-2-yl)methyl]-1-{3-fluoro-4-[4-({[5-(trifluoromethyl)pyridin-3-yl]methyl}carbamoyl)-1H-1,2,3-triazol-1-yl]butyl}-1H-1,2,3-triazole-4-carboxamide] | < 100 | < 100
14 | O=C(NCc1cccc(C(F)(F)F)c1)c1cn(CCCCn2cc(C(=O)NCC3CCCCO3)nn2)nn1 (stereo not shown) [Example 121, N-(oxan-2-ylmethyl)-1-{4-[4-({[3-(trifluoromethyl)phenyl]methyl}carbamoyl)-1H-1,2,3-triazol-1-yl]butyl}-1H-1,2,3-triazole-4-carboxamide] | 100 to 500 | 100 to 500
15 | O=C(NCc1cncc(C(F)(F)F)c1)c1cn(CCCCn2cc(C(=O)NCc3ccc(C(F)(F)F)cn3)nn2)nn1 [Example 142, 1-{4-[4-({[5-(trifluoromethyl)pyridin-2-yl]methyl}carbamoyl)-1H-1,2,3-triazol-1-yl]butyl}-N-{[5-(trifluoromethyl)pyridin-3-yl]methyl}-1H-1,2,3-triazole-4-\ carboxamide] | < 100 | < 100
16 | CNC(=O)c1cn(CC(F)CCc2nnc(NC(=O)Cc3cc(C4CCOCC4)ccn3)s2)nn1 (stereo not shown) [Example 265, 1-(2-fluoro-4-(5-(2-(4-(tetrahydro-2H-pyran-4-yl)pyridin-2-yl)acetamido)-1,3,4-thiadiazol-2-yl)butyl)-N-methyl-1H-1,2,3-triazole-4-carboxamide] | < 100 | < 100
17 | Cc1ccc(CC(=O)Nc2cn(CCCCn3cc(C(=O)NCc4cc(Cl)ccc4F)nn3)nn2)cn1 [Example 336, N-[(5-chloro-2-fluorophenyl)methyl]-1-(4-{4-[2-(6-methylpyridin-3-yl)acetamido]-1H-1,2,3-triazol-1-yl}butyl)-1H-1,2,3-triazole-4-carboxamide] | < 100 | 100 to 500
18 | O=C(NCc1cccc(C2CC2)c1)c1cn(CCCCn2cc(C(=O)NCc3cc(C4CC4)ccn3)nn2)nn1 [Example 128, N-[(3-cyclopropylphenyl)methyl]-1-[4-(4-{[(4-cyclopropylpyridin-2-yl)methyl]carbamoyl}-1H-1,2,3-triazol-1-yl)butyl]-1H-1,2,3-triazole-4-carboxamide] | < 100 | < 100
19 | CNC(=O)c1cn(CCC(F)Cn2cc(C(=O)NCc3cccc(C#N)c3)nn2)nn1 (stereo not shown) [Example 182, 1-[4-(4-{[(3-cyanophenyl)methyl]carbamoyl}-1H-1,2,3-triazol-1-yl)-3-fluorobutyl]-N-methyl-1H-1,2,3-triazole-4-carboxamide] | 100 to 500 | > 5000
20 | O=C(Cc1ccccn1)Nc1nnc(CCC(F)Cn2cc(C(=O)NCc3cncc(C(F)(F)F)c3)nn2)s1 (stereo not shown) [Example 571, 1-(2-fluoro-4-(5-(2-(pyridin-2-yl)acetamido)-1,3,4-thiadiazol-2-yl)butyl)-N-((5-(trifluoromethyl)pyridin-3-yl)methyl)-1H-1,2,3-triazole-4-carboxamide] | < 100 | < 100
21 | O=C(Cc1cccc(OC(F)(F)F)c1)Nc1cn(CCCCn2cc(C(=O)NCc3cccnc3)nn2)nn1 [Example 307, N-(pyridin-3-ylmethyl)-1-[4-(4-{2-[3-(trifluoromethoxy)phenyl]acetamido}-1H-1,2,3-triazol-1-yl)butyl]-1H-1,2,3-triazole-4-carboxamide] | < 100 | 100 to 500
22 | O=C(CN1CC(F)(F)C1)Nc1cn(CC(F)CCn2cc(C(=O)NCc3cc(C(F)(F)F)ccn3)nn2)nn1 (stereo not shown) [Example 402, 1-(4-{4-[2-(3,3-difluoroazetidin-1-yl)acetamido]-1H-1,2,3-triazol-1-yl}-3-fluorobutyl)-N-{[4-(trifluoromethyl)pyridin-2-yl]methyl}-1H-1,2,3-triazole-4-carboxamide] | 100 to 500 | 500 to 5000
23 | O=C(NCc1ccc(C2CC2)nc1)c1cn(CC(F)CCc2nnc(C(=O)NCc3cccc(C(F)(F)F)c3)s2)nn1 (stereo not shown) [Example 481, 5-[4-(4-{[(6-cyclopropylpyridin-3-yl)methyl]carbamoyl}-1H-1,2,3-triazol-1-yl)-3-fluorobutyl]-N-{[3-(trifluoromethyl)phenyl]methyl}-1,3,4-thiadiazole-2-carboxamide] | < 100 | < 100
24 | O=C(NCc1cc(C(F)(F)F)ccn1)c1cn(CC(F)CCc2nnc(C(=O)NCc3cccc(OC(F)(F)F)c3)s2)nn1 (stereo not shown) [Example 446, 5-{3-fluoro-4-[4-({[4-(trifluoromethyl)pyridin-2-yl]methyl}carbamoyl)-1H-1,2,3-triazol-1-yl]butyl}-N-{[3-(trifluoromethoxy)phenyl]methyl}-1,3,4-thiadiazole-2-carboxamide] | < 100 | < 100
25 | O=C(NCc1cc(OC(F)(F)F)ccc1F)c1cn(CCCCc2ccc(NC(=O)C3CC3)nn2)nn1 [Example 591] | < 100 | 100 to 500
26 | O=C(NCc1ccccc1)c1nnc(CCCCc2ccc(NC(=O)[C@@H](O)c3ccccc3)nn2)s1 [Example 29, N-benzyl-5-(4-{6-[(2S)-2-hydroxy-2-phenylacetamido]pyridazin-3-yl}butyl)-1,3,4-thiadiazole-2-carboxamide] | < 100 | < 100
